# Measurements from US20020006406A1, “METHOD FOR THE TREATMENT OF STAPHYLOCOCCAL DISEASE” (priority 1997, published 2002).
# Like-named read-outs stand apart in the source and are kept apart here.
# Key:
# S. aureus [1] = assay: MIC by broth microdilution with 0.1% BSA in the diluent; assay type: cell-based
# Method: Lysostaphin sticks to plastic materials and can be lost from solution; this can affect its apparent activity. Therefore, some MIC determinations were also performed with additions of 0.1% bovine serum album (BSA) to the diluent. Otherwise, the method was identical to that cited above. […] Since this observation is related to the affinity of lysostaphin for plastic materials, it is to be expected that, in general, staphylococcal strains are more susceptible to lysostaphin than was observed previously.
# [2] = test system: Giorgio strain of S. aureus; conditions: mice, cited from earlier work
# [3] = test system: methicillin-resistant clinical isolates of S. aureus and 27619VR; assay: Time-kill experiment, four S. aureus strains (FIG. 2); assay type: cell-based; conditions: 1 μg/ml; three methicillin-resistant clinical isolates and 27619VR; 2×10^6 to 9×10^7 CFU/ml
# Method: In another experiment (FIG. 2), three different methicillin-resistant clinical isolates of S. aureus, and a fourth strain, 27619VR, a laboratory-derived ‘VISA’ strain (i.e., with intermediate resistance to vancomycin) derived from a methicillin-resistant clinical isolate, were inoculated into cation-adjusted Mueller-Hinton broth (Becton Dickinson) and grown at 37° C. overnight. They were then diluted into fresh broth and incubated at 37° C. with gentle shaking until they were estimated to have reached the logarithmic stage of growth. […] Lysostaphin was added to each culture at the concentration of 1 μg/ml. At intervals, samples were withdrawn, serially diluted in 0.9% NaCl, and plated by spreading on Mueller-Hinton agar (Becton Dickinson). The agar plates were incubated for 48 hours at 37° C. and the colonies were counted manually.
# S. aureus [4] = assay: MIC by broth macrodilution in glass tubes; assay type: cell-based
# Method: In this experiment, MICs were determined by broth macrodilution in 1 ml final volumes in glass tubes. Otherwise, the methodology was as described above.
# [5] = test system: Staphylococcus epidermidis; assay: MIC against Staphylococcus epidermidis clinical isolates; assay type: cell-based; conditions: 11 of 13 clinical isolates of S. epidermidis tested
# Description: Approved Standard M7-A3. Methods for dilution antimicrobial susceptibility tests for bacteria that grow aerobically—Third edition. National Committee for Clinical Laboratory Standards, Villanova, Pa.; National Committee for Clinical Laboratory Standards, 1992. Tentative Guideline M26-T. Methods for determining bactericidal activity of antimicrobial agents. National Committee for Clinical Laboratory Standards, Villanova, Pa.].
# S. aureus Smith = assay: Acute S. aureus infection model in mice (survival); assay type: in vivo
# Method: The efficacy of lysostaphin was compared to that of vancomycin in an acute infection model in mice. S. aureus Smith was cultured overnight, with moderate agitation, in Veal Infusion broth (Difco) and diluted in broth containing 5% hog gastric mucin (Difco). Male Swiss-Webster mice (Taconic Farms, Germantown, N.Y.) weighing approximately 20 grams were infected intraperitoneally with 10^5-10^6 viable cells, approximately tenfold the inoculum that reproducibly killed all untreated animals within 48 h. There were six mice in each treatment group. Lysostaphin was administered intravenously (in 0.1 ml 5% dextrose for injection) or subcutaneously (in 0.2 ml), within 10 min of infection. Vancomycin was administered subcutaneously.
# [6] = lysostaphin intravenously vs vancomycin
substance,measurement,setting,value
lysostaphin: recombinant lysostaphin enzyme from fermentation of B. sphaericus; majority component lacks the two N-terminal amino acids of the published sequence,MIC With BSA,S. aureus [1]; strain 401 (clinical isolate),15 ng/mL
same,MIC With BSA,"S. aureus [1]; strain 404 (clinical isolate, methicillin-resistant)",8 ng/mL
same,MIC With BSA,S. aureus [1]; strain 414,30 ng/mL
same,MIC With BSA,S. aureus [1]; strain 417,30 ng/mL
same,MIC With BSA,"S. aureus [1]; strain 25756 (clinical isolate, methicillin-resistant)",8 ng/mL
same,MIC With BSA,"S. aureus [1]; strain 27287 (clinical isolate, methicillin-resistant)",30 ng/mL
same,MIC With BSA,"S. aureus [1]; strain 27295 (clinical isolate, methicillin-resistant)",≦0.004 μg/ml
same,MIC With BSA,"S. aureus [1]; strain 27619 (clinical isolate, methicillin-resistant)",8 ng/mL
same,numbers of bacteria in the kidneys,"[2]; intravenously within 6 hours after infection, dosages of 1.5 mg/kg or higher",significant reductions
same,numbers of bacteria in the kidneys,"[2]; treatment withheld for 24 hours or longer, dosages of 125 or 250 mg/kg",only modest reductions
same,killing of strains in time-kill experiment,[3],rapidly killed
same,MIC,S. aureus [4]; strain AG402 (clinical isolate),8 ng/mL
same,MIC,"S. aureus [4]; strain AG404 (clinical isolate, methicillin-resistant)",8 ng/mL
same,MIC,S. aureus [4]; strain AG414,4 ng/mL
same,MIC,S. aureus [4]; strain AG417,4 ng/mL
same,MIC,[5],≤ 8000 ng/mL
same,% survival,S. aureus Smith; 0.08 mg/kg iv within 10 min of infection,33%
same,% survival,S. aureus Smith; 0.16 mg/kg iv within 10 min of infection,100%
same,% survival,S. aureus Smith; 0.31 mg/kg iv within 10 min of infection,100%
same,% survival,S. aureus Smith; 0.63 mg/kg iv within 10 min of infection,100%
same,% survival,S. aureus Smith; 1.25 mg/kg sc,67%
same,% survival,S. aureus Smith; 2.5 mg/kg sc,100%
same,% survival,S. aureus Smith; 5 mg/kg sc,100%
same,% survival,S. aureus Smith; 10 mg/kg sc,100%
same,% survival,S. aureus Smith; 20 mg/kg sc,100%
same,% survival,"S. aureus Smith; Table 4 experiment, dose 0.04 mg/kg",0%
same,% survival,"S. aureus Smith; Table 4 experiment, dose 0.08 mg/kg",17%
same,% survival,"S. aureus Smith; Table 4 experiment, dose 0.16 mg/kg",83%
same,"effectiveness relative to vancomycin, on a molar basis",S. aureus Smith; [6],about 200 times
same,"effectiveness relative to vancomycin, on a weight basis",S. aureus Smith; [6],16 times
